Experimental data published in the supplement of paper PMC10307832.

Assays:
Test in all cases: relative viability (nuclei count vs DMSO), 5 days (fraction); higher = more cells survive
[1] = compound: CC(C)C[C@@H](C(=O)N[C@H](C(=O)OC1CCCC1)c1ccccc1)[C@H](O)C(=O)NO [Tosedostat] + CS(=O)(=O)CCNCc1ccc(-c2ccc3ncnc(Nc4ccc(OCc5cccc(F)c5)c(Cl)c4)c3c2)o1 [Lapatinib] (partner 2 µM)
How it was run: (§1)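 Values are medians from duplicate plates. Each reflects relative viability, defined as the nuclei count of treated wells over that of vehicle wells. Lung cancer cell lines in 1536-well plates were pin-tool dosed one day after seeding with one drug alone or with a fixed anchor-drug dose plus five library-drug doses (not always all listed) in √10 steps, then fixed, stained and imaged at 4× after 5 days.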

[2] = compound: CC1=NN=C(O1)C2=NN=C(C=C2)N3CCC(CC3)OC4=C(C=CC(=C4)F)Cl + CC(=O)c1c(C)c2cnc(Nc3ccc(N4CCNCC4)cn3)nc2n(C2CCCC2)c1=O [Palbociclib] (partner 0.5 µM)
How it was run: as §1

[3] = compound: CC1=NN=C(O1)C2=NN=C(C=C2)N3CCC(CC3)OC4=C(C=CC(=C4)F)Cl + CCNC(=O)c1noc(-c2cc(C(C)C)c(O)cc2O)c1-c1ccc(CN2CCOCC2)cc1 [Luminespib] (partner 0.01 µM)
How it was run: as §1

[4] = compound: CC1=NN=C(O1)C2=NN=C(C=C2)N3CCC(CC3)OC4=C(C=CC(=C4)F)Cl + N=C(N)NC(=N)NCCc1ccccc1 [Phenformin] (partner 250 µM)
How it was run: as §1

Row | Cell Line | relative viability ([1]; first compound 0.02 µM) | relative viability ([1]; first compound 0.06325 µM) | relative viability ([1]; first compound 0.2 µM) | relative viability ([1]; first compound 0.6325 µM) | relative viability ([1]; first compound 2 µM) | relative viability ([2]; first compound 0.253 µM) | relative viability ([2]; first compound 0.8 µM) | relative viability ([2]; first compound 2.53 µM) | relative viability ([2]; first compound 8 µM) | relative viability ([3]; first compound 0.253 µM) | relative viability ([3]; first compound 0.8 µM) | relative viability ([3]; first compound 2.53 µM) | relative viability ([3]; first compound 8 µM) | relative viability ([4]; first compound 0.253 µM) | relative viability ([4]; first compound 0.8 µM) | relative viability ([4]; first compound 2.53 µM) | relative viability ([4]; first compound 8 µM)
1 | NCI-H520 | 0.815 | 0.984 | 0.96 | 0.923 | 1.03 | 0.247 | 0.258 | 0.263 | 0.251 | 0.207 | 0.217 | 0.199 | 0.2 | 0.509 | 0.414 | 0.741 | 0.578
2 | NCI-H2085 | 0.568 | 0.825 | 0.827 | 0.743 | 0.836 | 0.425 | 0.431 | 0.469 | 0.37 | 0.499 |  | 0.339 | 0.216 | 0.676 |  | 0.629 | 0.565
3 | NCI-H1944 | 0.94 | 0.836 | 0.854 | 0.81 | 0.904 | 0.238 | 0.278 | 0.249 | 0.246 | 0.45 | 0.417 | 0.483 | 0.402 | 0.183 | 0.187 | 0.196 | 0.183
4 | LXF-289 | 0.967 | 0.883 | 0.935 | 0.868 | 0.92 | 0.524 | 0.549 | 0.531 | 0.458 | 0.477 | 0.378 | 0.547 | 0.395 | 0.509 | 0.393 | 0.504 | 0.465
5 | NCI-H596 | 1.21 | 1.16 | 1 | 1.22 | 1.07 |  |  |  |  | 0.938 | 0.849 | 0.945 | 0.889 | 0.648 | 0.611 | 0.697 | 0.525
6 | NCI-H441 |  |  |  |  |  | 0.206 | 0.257 | 0.282 | 0.217 | 0.295 | 0.32 | 0.245 | 0.282 | 0.715 | 0.498 | 0.699 | 0.619
7 | NCI-H2126 | 0.705 | 0.754 | 0.83 | 0.76 | 0.674 | 0.368 | 0.338 | 0.326 | 0.353 | 0.826 | 0.795 | 0.734 | 0.828 | 0.486 | 0.507 | 0.53 | 0.528
8 | HCC-15 | 0.949 | 0.882 | 0.748 | 0.746 | 0.708 | 0.427 | 0.392 | 0.414 | 0.418 | 0.342 | 0.303 | 0.294 | 0.286 | 0.441 | 0.396 | 0.427 | 0.428
9 | HCC-44 | 1.04 | 0.994 | 0.94 | 0.937 | 0.678 | 0.366 | 0.434 | 0.412 | 0.355 | 0.739 | 0.812 | 0.725 | 0.731 | 0.267 | 0.167 | 0.178 | 0.157
10 | COR-L23 | 1.03 | 0.946 | 0.918 | 0.817 | 0.99 | 0.27 | 0.24 | 0.241 | 0.247 | 0.587 | 0.647 | 0.458 | 0.474 | 0.423 | 0.385 | 0.425 | 0.363
11 | HCC-78 | 0.647 | 0.764 | 0.684 | 0.841 | 0.746 | 0.454 | 0.366 | 0.473 | 0.457 |  |  |  |  | 0.619 | 0.59 | 0.541 | 0.497
12 | NCI-H1437 | 0.749 | 0.809 | 0.744 | 0.727 | 0.661 | 0.22 | 0.233 | 0.268 | 0.168 | 0.654 | 0.6 | 0.598 | 0.546 | 0.209 | 0.236 | 0.288 | 0.252
13 | SK-LU-1 | 0.915 | 0.774 | 0.7 | 0.709 | 0.739 | 0.428 | 0.334 | 0.33 | 0.47 | 0.218 |  | 0.207 | 0.185 | 0.584 |  | 0.534 | 0.475
14 | NCI-H2347 | 1.12 | 1.02 | 1.03 | 0.892 | 0.888 | 0.459 | 0.43 | 0.411 | 0.386 |  | 0.433 | 0.421 | 0.459 |  | 0.382 | 0.493 | 0.359
15 | LCLC-103H |  |  |  |  |  | 0.343 | 0.32 | 0.321 | 0.343 | 0.678 | 0.74 | 0.537 | 0.582 | 0.36 | 0.344 | 0.335 | 0.225
16 | NCI-H1299 | 1.02 | 0.954 | 0.96 | 0.951 | 0.892 |  |  |  |  |  |  |  |  |  |  |  | 
17 | NCI-H1703 | 1.35 | 1 | 1.02 | 0.743 | 0.943 |  |  |  |  |  |  |  |  |  |  |  | 
18 | NCI-H1563 | 1.03 | 1.03 | 0.957 | 0.956 | 1.05 |  |  |  |  | 0.488 | 0.52 | 0.519 | 0.532 | 0.646 | 0.659 | 0.612 | 0.641
19 | ChaGo-K-1 |  |  |  |  |  | 0.625 | 0.502 | 0.57 | 0.553 | 0.426 | 0.532 | 0.56 | 0.541 | 0.471 | 0.373 | 0.545 | 0.381
20 | NCI-H1648 |  |  |  |  |  | 0.258 | 0.278 | 0.263 | 0.244 |  |  |  |  |  |  |  | 
21 | A549 | 1 | 1.07 | 0.957 | 0.925 | 0.939 |  |  |  |  |  |  |  |  | 0.158 | 0.0878 | 0.14 | 0.147
22 | NCI-H522 |  |  |  |  |  | 1.1 | 1.01 | 0.65 | 1.05 | 1.2 | 0.989 | 1.15 | 1.22 | 0.679 | 0.632 | 0.855 | 0.526
23 | NCI-H1623 |  |  |  |  |  |  |  |  |  | 0.465 | 0.52 | 0.486 | 0.433 | 0.568 | 0.545 | 0.627 | 0.574
24 | SW 900 |  |  |  |  |  |  | 0.574 | 0.504 | 0.463 |  |  | 0.175 | 0.175 |  |  | 0.827 | 0.562
25 | IA-LM | 0.885 | 0.925 | 0.61 | 0.746 | 0.645 |  |  |  |  |  |  |  |  |  |  |  | 
26 | EBC-1 | 0.241 | 0.245 | 0.195 | 0.22 | 0.17 |  |  |  |  |  |  |  |  |  |  |  | 
